# Data taken from US6727264B1 (Synaptic Pharmaceutical Corporation, priority 2001, dated 2004).
# Molecular target: rat MCH-1 (Rattus norvegicus, UniProt P97639)
# Test: Radioligand binding assay at cloned rat MCH1 receptor ([3H] Compound A)
# Parameters: host or cells: Peak rapid 293 (Peakr293) cells, transient calcium phosphate transfection, membranes
# Settings: cloned rat MCH1 receptor, membranes from Peakr293 cells, 0.08 nM [3H] Compound A; read-out: Ki (nM) rMCH1
# rat MCH-1, sequence (P97639 whole entry): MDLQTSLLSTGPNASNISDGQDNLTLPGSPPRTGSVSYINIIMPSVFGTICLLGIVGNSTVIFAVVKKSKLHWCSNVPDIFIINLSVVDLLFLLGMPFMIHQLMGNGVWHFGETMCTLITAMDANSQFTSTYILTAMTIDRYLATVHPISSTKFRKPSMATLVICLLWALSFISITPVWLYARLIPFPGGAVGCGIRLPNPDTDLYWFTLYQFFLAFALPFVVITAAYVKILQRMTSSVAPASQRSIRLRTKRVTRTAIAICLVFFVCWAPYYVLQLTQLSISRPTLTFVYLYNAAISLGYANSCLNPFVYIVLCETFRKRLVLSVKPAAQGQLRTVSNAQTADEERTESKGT
row,Compound,Ki [nM]
1,CC(C)C(=O)Nc1cccc(C2CCN(CCCCCn3ccc4ccccc43)CC2)c1 [Example 97],27.3
2,CCn1c2ccccc2c2cc(CN3CCC(c4ccc(NC(=O)C(C)C)cc4)CC3)ccc21 [Example 98],37.9
3,COc1ccc(-n2ccc3cc(CN4CCC(c5cccc(NC(=O)C(C)C)c5)CC4)ccc32)cc1 [Example 100],27.5
4,CC(C)C(=O)Nc1cccc(C2CCN(CCC(=O)c3ccc(Cl)cc3)CC2)c1 [Example 118],43.6
5,COc1ccc(C(=O)CCN2CCC(c3cccc(NC(=O)C(C)C)c3)CC2)cc1 [Example 119],75.7
6,CC(C)C(=O)Nc1cccc(C2CCN(CCC(=O)c3ccc4c(c3)CCC4)CC2)c1 [Example 120],31.1
7,CC(C)C(=O)Nc1cccc(C2CCN(CCC(=O)c3ccccc3)CC2)c1 [Example 121],184
8,Cc1ccc(C(=O)CCN2CCC(c3cccc(NC(=O)C(C)C)c3)CC2)cc1 [Example 122],85.1
9,CC(C)C(=O)Nc1cccc(C2CCN(CCC(=O)c3ccc(F)cc3)CC2)c1 [Example 123],450
10,CC(C)C(=O)Nc1cccc(C2CCN(CCC(O)c3ccc(Cl)cc3)CC2)c1 (stereo not shown) [Example 124],33
11,CC(C)C(=O)Nc1cccc(C2CCN(CCC(O)c3ccc(F)cc3)CC2)c1 (stereo not shown) [Example 127],168
12,"COc1ccc(C(O)CCN2CCC(c3cccc(NC(=O)C(C)C)c3)CC2)cc1 (stereo not shown) [Example 128, N-(3-{1-[3-HYDROXY-3-(4- METHOXYPHENYL)PROPYL]-4-PIPERIDINYL}PHENYL)-2-METHYLPROPANAMIDE]",329
13,CC(C)C(=O)Nc1cccc(C2CCN(CCC(O)c3ccc(Br)cc3)CC2)c1 (stereo not shown) [Example 129],38.8

# These reach a lower Ki. Values come first.
row,Ki [nM],Compound
1,21.3,Cc1cccc(-n2ccc3cc(CN4CCC(c5cccc(NC(=O)C(C)C)c5)CC4)ccc32)c1 [Example 103]
2,20.9,Cc1cc(CN2CCC(c3cccc(NC(=O)C(C)C)c3)CC2)c(C)n1-c1cccc(C(F)(F)F)c1 [Example 109]
3,19,CC(C)C(=O)Nc1cccc(C2CCN(CCC(=O)c3ccc(Br)cc3)CC2)c1 [Example 117]
4,15.9,CC(C)C(=O)Nc1cccc(C2CCN(CCCCCCn3ccc4ccccc43)CC2)c1 [Example 96]
5,13.8,Cc1ccccc1OC(CCN1CCC(c2cccc(NC(=O)C(C)C)c2)CC1)c1ccc(Cl)cc1 (stereo not shown) [Example 126]
6,11.9,CC(C)C(=O)Nc1cccc(C2CCN(CCC(Oc3ccc(Cl)cc3)c3ccc(F)cc3)CC2)c1 (stereo not shown) [Example 131]
7,11.2,CC(C)C(=O)Nc1cccc(C2CCN(CCCNS(=O)(=O)c3ccc(Cl)c([N+](=O)[O-])c3)CC2)c1 [Example 104]
8,8,COc1ccc2[nH]c(-c3ccccc3)c(CCCCN3CCC(c4cccc(NC(=O)C(C)C)c4)CC3)c2c1 [Example 92]
9,7.8,CC(C)C(=O)Nc1cccc(C2CCN(Cc3ccc4c(ccn4-c4ccc(F)cc4)c3)CC2)c1 [Example 101]
10,6.1,CC(C)C(=O)Nc1cccc(C2CCN(Cc3ccc(Oc4ccc(Cl)c(Cl)c4)cc3)CC2)c1 [Example 112]
11,6,COc1ccc(OC(CCN2CCC(c3cccc(NC(=O)C(C)C)c3)CC2)c2ccc(Cl)cc2)cc1 (stereo not shown) [Example 130]
12,5.4,COc1ccc2[nH]cc(CCCN3CCC(c4cccc(NC(=O)C(C)C)c4)CC3)c2c1 [Example 95]
13,5.4,CC(C)C(=O)Nc1cccc(C2CCN(CCC(Oc3ccc(F)c(F)c3)c3ccc(Cl)cc3)CC2)c1 (stereo not shown) [Example 125]
14,4.6,CC(C)C(=O)Nc1cccc(C2CCN(CCCCCN3C(=O)OCC3c3ccc(F)c(F)c3)CC2)c1 (stereo not shown) [Example 105]
15,4.2,CC(C)C(=O)Nc1cccc(C2CCN(Cc3cn(-c4ccccc4)c4ccccc34)CC2)c1 [Example 93]
16,3.6,CC(C)C(=O)Nc1cccc(C2CCN(Cc3ccc(N(c4ccccc4)c4ccccc4)cc3)CC2)c1 [Example 114]
17,2.3,CC(C)C(=O)Nc1cccc(C2CCN(CCC/C(=N\Nc3ccccn3)c3ccccc3)CC2)c1 [Example 94]
18,1.7,CC(C)C(=O)Nc1cccc(C2CCN(CCNC(=O)C(c3ccccc3)c3ccccc3)CC2)c1 [Example 107]
